The record followed here is patent US20240239861A1, “GLUCAGON-RECEPTOR SELECTIVE POLYPEPTIDES AND METHODS OF USE THEREOF” (i2O Therapeutics, Inc., priority 2016, published 2024).

pEC50: −log10 of the molar value. Where a SMILES comes first, the peptide text is derived from it. [ ]: non-standard residue; d: D form. Aib = CC(C)(N)C(=O)O

Broadly, the pEC50 is the negative decadic logarithm of the EC50, by convention in mol/L. A higher pEC50 goes with a low EC50.

For one assay, the target named is human GCGR (Homo sapiens, UniProt P47871). The assay is described as follows: Peptide-receptor mediated cAMP accumulation (LANCE Ultra cAMP) in CHO-K1 cells transfected with human GCGR. It counts as cell-based. The note with it: Table 3. A general note: Changes in cAMP serve as a functional read-out for many G protein-coupled receptors.
human GCGR, sequence (P47871 26-477): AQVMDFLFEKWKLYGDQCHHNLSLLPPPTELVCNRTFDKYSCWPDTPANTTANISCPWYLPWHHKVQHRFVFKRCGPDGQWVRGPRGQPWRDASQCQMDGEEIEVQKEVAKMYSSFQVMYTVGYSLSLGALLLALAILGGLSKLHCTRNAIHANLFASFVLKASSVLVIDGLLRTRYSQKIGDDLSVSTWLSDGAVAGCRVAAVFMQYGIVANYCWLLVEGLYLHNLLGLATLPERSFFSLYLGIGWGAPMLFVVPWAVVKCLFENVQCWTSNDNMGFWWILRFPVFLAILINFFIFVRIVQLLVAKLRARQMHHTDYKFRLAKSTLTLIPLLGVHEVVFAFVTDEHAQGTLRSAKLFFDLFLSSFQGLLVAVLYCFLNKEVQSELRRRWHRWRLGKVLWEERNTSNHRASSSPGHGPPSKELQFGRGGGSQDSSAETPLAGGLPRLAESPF
The next assay deals with human GLP-1R (Homo sapiens, UniProt P43220). Kind of assay: Peptide-receptor mediated cAMP accumulation (LANCE Ultra cAMP) in CHO-K1 cells transfected with human GLP-1R. It counts as cell-based. As to conditions: hGLP1 pEC50 (cAMP mean (n = 3): 11 point curve starting at 1 nM, Table 3).
human GLP-1R, sequence (P43220 24-463): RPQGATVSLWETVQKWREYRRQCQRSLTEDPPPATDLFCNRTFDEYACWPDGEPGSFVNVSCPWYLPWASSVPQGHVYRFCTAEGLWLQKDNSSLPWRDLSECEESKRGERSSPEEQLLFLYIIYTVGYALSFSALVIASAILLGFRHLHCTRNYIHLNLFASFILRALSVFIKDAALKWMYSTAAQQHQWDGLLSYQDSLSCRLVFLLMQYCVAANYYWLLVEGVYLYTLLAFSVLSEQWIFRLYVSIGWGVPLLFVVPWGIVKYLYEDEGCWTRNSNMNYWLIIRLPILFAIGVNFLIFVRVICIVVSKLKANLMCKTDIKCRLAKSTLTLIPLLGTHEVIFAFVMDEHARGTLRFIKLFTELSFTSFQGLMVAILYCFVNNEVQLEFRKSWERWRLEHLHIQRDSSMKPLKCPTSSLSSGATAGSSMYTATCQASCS

Consider `CC(C)C[C@H](NC(=O)[C@H](Cc1ccc(O)cc1)NC(=O)[C@H](CCCCN)NC(=O)[C@H](CO)NC(=O)[C@H](Cc1ccc(O)cc1)NC(=O)[C@H](CC(=O)O)NC(=O)[C@H](CO)NC(=O)[C@@H](NC(=O)[C@H](Cc1ccccc1)NC(=O)[C@@H](NC(=O)CNC(=O)[C@H](Cc1c[nH]cn1)NC(=O)[C@H](CO)NC(=O)[C@@H](N)Cc1ccc(O)cc1)[C@@H](C)O)[C@@H](C)O)C(=O)N[C@@H](CC(=O)O)C(=O)NC(C)(C)C(=O)N[C@@H](CCCCN)C(=O)N[C@@H](CCCNC(=N)N)C(=O)N[C@@H](C)C(=O)N[C@@H](CCC(N)=O)C(=O)N[C@@H](CCC(=O)O)C(=O)N[C@@H](Cc1ccccc1)C(=O)N[C@H](C(=O)NC(C)(C)C(=O)N[C@@H](Cc1c[nH]c2ccccc12)C(=O)N[C@@H](CC(C)C)C(=O)N[C@@H](CCC(=O)O)C(=O)N[C@@H](CC(=O)O)C(=O)N[C@@H](CCC(=O)O)C(=O)N1CCC[C@H]1C(=O)N[C@@H](CO)C(=O)N[C@@H](CO)C(=O)NCC(=O)N[C@@H](CCC(=O)O)C(=O)N1CCC[C@H]1C(=O)N1CCC[C@H]1C(=O)N1CCC[C@H]1C(=O)N[C@@H](CO)C(=O)O)C(C)C` [Compound A21] (H-YSHGTFTSDYSKYLD[Aib]KRAQEFV[Aib]WLEDEPSSGEPPPS-OH; N-terminus assumed), for which the pEC50 on human GCGR was 11.10; at human GLP-1R it was < 9.00.

For the molecule `CC(C)C[C@H](NC(=O)[C@H](Cc1ccc(O)cc1)NC(=O)[C@H](CCCCN)NC(=O)[C@H](CO)NC(=O)[C@H](Cc1ccc(O)cc1)NC(=O)[C@H](CC(=O)O)NC(=O)[C@H](CO)NC(=O)[C@@H](NC(=O)[C@H](Cc1ccccc1)NC(=O)[C@@H](NC(=O)CNC(=O)[C@H](Cc1c[nH]cn1)NC(=O)[C@H](CO)NC(=O)[C@@H](N)Cc1ccc(O)cc1)[C@@H](C)O)[C@@H](C)O)C(=O)N[C@@H](CC(=O)O)C(=O)NC(C)(C)C(=O)N[C@@H](CCCCN)C(=O)N[C@@H](CCCNC(=N)N)C(=O)N[C@@H](C)C(=O)N[C@@H](CCC(N)=O)C(=O)N[C@@H](CCC(=O)O)C(=O)N[C@@H](Cc1ccccc1)C(=O)N[C@H](C(=O)NC(C)(C)C(=O)N[C@@H](Cc1c[nH]c2ccccc12)C(=O)N[C@@H](CC(C)C)C(=O)N[C@@H](CCC(=O)O)C(=O)N[C@@H](CC(=O)O)C(=O)N[C@@H](CCC(=O)O)C(=O)N1CCC[C@H]1C(=O)N[C@@H](CO)C(=O)N[C@@H](CO)C(=O)NCC(=O)N[C@@H](CO)C(=O)N1CCC[C@H]1C(=O)N1CCC[C@H]1C(=O)N1CCC[C@H]1C(=O)N[C@@H](CO)C(=O)O)C(C)C` [Compound A22] (H-YSHGTFTSDYSKYLD[Aib]KRAQEFV[Aib]WLEDEPSSGSPPPS-OH; N-terminus assumed), the pEC50 at human GCGR was 11.00; on human GLP-1R, < 9.00.

Turning to `CC(C)C[C@H](NC(=O)[C@H](Cc1ccc(O)cc1)NC(=O)[C@H](CCCCN)NC(=O)[C@H](CO)NC(=O)[C@H](Cc1ccc(O)cc1)NC(=O)[C@H](CC(=O)O)NC(=O)[C@H](CO)NC(=O)[C@@H](NC(=O)[C@H](Cc1ccccc1)NC(=O)[C@@H](NC(=O)CNC(=O)[C@H](Cc1c[nH]cn1)NC(=O)[C@H](CO)NC(=O)[C@@H](N)Cc1ccc(O)cc1)[C@@H](C)O)[C@@H](C)O)C(=O)N[C@@H](CC(=O)O)C(=O)NC(C)(C)C(=O)N[C@@H](CCCCN)C(=O)N[C@@H](CCCNC(=N)N)C(=O)N[C@@H](C)C(=O)N[C@@H](CCC(N)=O)C(=O)N[C@@H](CCC(=O)O)C(=O)N[C@@H](Cc1ccccc1)C(=O)N[C@H](C(=O)NC(C)(C)C(=O)N[C@@H](Cc1c[nH]c2ccccc12)C(=O)N[C@@H](CC(C)C)C(=O)N[C@@H](CCC(=O)O)C(=O)N[C@@H](CC(=O)O)C(=O)N[C@@H](CCC(=O)O)C(=O)N1CCC[C@H]1C(=O)N[C@@H](CO)C(=O)N[C@@H](CO)C(=O)N[C@@H](CCCCN)C(=O)N[C@@H](C)C(=O)N1CCC[C@H]1C(=O)N1CCC[C@H]1C(=O)N1CCC[C@H]1C(=O)N[C@@H](CO)C(=O)O)C(C)C` [Compound A23] (H-YSHGTFTSDYSKYLD[Aib]KRAQEFV[Aib]WLEDEPSSKAPPPS-OH; N-terminus assumed), the results for the pEC50 on human GCGR and on human GLP-1R were 11.20 and < 9.00, respectively.

Regarding `CC(C)C[C@H](NC(=O)[C@H](Cc1ccc(O)cc1)NC(=O)[C@H](CCCCN)NC(=O)[C@H](CO)NC(=O)[C@H](Cc1ccc(O)cc1)NC(=O)[C@H](CC(=O)O)NC(=O)[C@H](CO)NC(=O)[C@@H](NC(=O)[C@H](Cc1ccccc1)NC(=O)[C@@H](NC(=O)CNC(=O)[C@H](Cc1c[nH]cn1)NC(=O)[C@H](CO)NC(=O)[C@@H](N)Cc1ccc(O)cc1)[C@@H](C)O)[C@@H](C)O)C(=O)N[C@@H](CC(=O)O)C(=O)NC(C)(C)C(=O)N[C@@H](CCCCN)C(=O)N[C@@H](CCCNC(=N)N)C(=O)N[C@@H](C)C(=O)N[C@@H](CCC(N)=O)C(=O)N[C@@H](CCC(=O)O)C(=O)N[C@@H](Cc1ccccc1)C(=O)N[C@H](C(=O)NC(C)(C)C(=O)N[C@@H](Cc1c[nH]c2ccccc12)C(=O)N[C@@H](CC(C)C)C(=O)N[C@@H](CCC(=O)O)C(=O)N[C@@H](CC(=O)O)C(=O)N[C@@H](CCC(=O)O)C(=O)N1CCC[C@H]1C(=O)N[C@@H](CO)C(=O)N[C@@H](CO)C(=O)NCC(=O)N[C@@H](C)C(=O)N1CCC[C@H]1C(=O)N1CCC[C@H]1C(=O)N1CCC[C@H]1C(=O)N[C@@H](CO)C(=O)N[C@@H](CO)C(=O)O)C(C)C` [Compound A25] (H-YSHGTFTSDYSKYLD[Aib]KRAQEFV[Aib]WLEDEPSSGAPPPSS-OH; N-terminus assumed), the pEC50 at human GCGR was 11.30; on human GLP-1R, < 9.00.

For the molecule `CC(C)C[C@H](NC(=O)[C@H](Cc1ccc(O)cc1)NC(=O)[C@H](CCCCN)NC(=O)[C@H](CO)NC(=O)[C@H](Cc1ccc(O)cc1)NC(=O)[C@H](CC(=O)O)NC(=O)[C@H](CO)NC(=O)[C@@H](NC(=O)[C@H](Cc1ccccc1)NC(=O)[C@@H](NC(=O)CNC(=O)[C@H](Cc1c[nH]cn1)NC(=O)[C@H](CO)NC(=O)[C@@H](N)Cc1ccc(O)cc1)[C@@H](C)O)[C@@H](C)O)C(=O)N[C@@H](CC(=O)O)C(=O)NC(C)(C)C(=O)N[C@@H](CCCCN)C(=O)N[C@@H](CCCNC(=N)N)C(=O)N[C@@H](C)C(=O)N[C@@H](CCC(N)=O)C(=O)N[C@@H](CCC(=O)O)C(=O)N[C@@H](Cc1ccccc1)C(=O)N[C@H](C(=O)NC(C)(C)C(=O)N[C@@H](Cc1c[nH]c2ccccc12)C(=O)N[C@@H](CC(C)C)C(=O)N[C@@H](CCC(=O)O)C(=O)N[C@@H](CC(=O)O)C(=O)N[C@@H](CCC(=O)O)C(=O)N1CCC[C@H]1C(=O)N[C@@H](CO)C(=O)N[C@@H](CO)C(=O)NCC(=O)N[C@@H](C)C(=O)N1CCC[C@H]1C(=O)N1CCC[C@H]1C(=O)N1CCC[C@H]1C(=O)N[C@@H](CO)C(=O)N[C@@H](CCC(=O)O)C(=O)O)C(C)C` [Compound A26] (H-YSHGTFTSDYSKYLD[Aib]KRAQEFV[Aib]WLEDEPSSGAPPPSE-OH; N-terminus assumed), the pEC50 at human GCGR was 11.10; on human GLP-1R it was < 9.00.

As for `CC(C)C[C@H](NC(=O)[C@H](Cc1ccc(O)cc1)NC(=O)[C@H](CCCCN)NC(=O)[C@H](CO)NC(=O)[C@H](Cc1ccc(O)cc1)NC(=O)[C@H](CC(=O)O)NC(=O)[C@H](CO)NC(=O)[C@@H](NC(=O)[C@H](Cc1ccccc1)NC(=O)[C@@H](NC(=O)CNC(=O)[C@H](Cc1c[nH]cn1)NC(=O)[C@H](CO)NC(=O)[C@@H](N)Cc1ccc(O)cc1)[C@@H](C)O)[C@@H](C)O)C(=O)N[C@@H](CC(=O)O)C(=O)NC(C)(C)C(=O)N[C@@H](CCCCN)C(=O)N[C@@H](CCCNC(=N)N)C(=O)N[C@@H](C)C(=O)N[C@@H](CCC(N)=O)C(=O)N[C@@H](CCC(=O)O)C(=O)N[C@@H](Cc1ccccc1)C(=O)N[C@H](C(=O)NC(C)(C)C(=O)N[C@@H](Cc1c[nH]c2ccccc12)C(=O)N[C@@H](CC(C)C)C(=O)N[C@@H](CCC(=O)O)C(=O)N[C@@H](CC(=O)O)C(=O)N[C@@H](CCC(=O)O)C(=O)N1CCC[C@H]1C(=O)N[C@@H](CCCCN)C(=O)N[C@@H](CO)C(=O)NCC(=O)N[C@@H](C)C(=O)N1CCC[C@H]1C(=O)N1CCC[C@H]1C(=O)N1CCC[C@H]1C(=O)N[C@@H](CO)C(=O)O)C(C)C` [Compound A29] (H-YSHGTFTSDYSKYLD[Aib]KRAQEFV[Aib]WLEDEPKSGAPPPS-OH), the values for the pEC50 at human GCGR and on human GLP-1R were 11.10 and < 9.00, respectively.

As for `CC(C)C[C@H](NC(=O)[C@H](Cc1ccc(O)cc1)NC(=O)[C@H](CCCCN)NC(=O)[C@H](CO)NC(=O)[C@H](Cc1ccc(O)cc1)NC(=O)[C@H](CC(=O)O)NC(=O)[C@H](CO)NC(=O)[C@@H](NC(=O)[C@H](Cc1ccccc1)NC(=O)[C@@H](NC(=O)CNC(=O)[C@H](Cc1c[nH]cn1)NC(=O)[C@H](CO)NC(=O)[C@@H](N)Cc1ccc(O)cc1)[C@@H](C)O)[C@@H](C)O)C(=O)N[C@@H](CC(=O)O)C(=O)NC(C)(C)C(=O)N[C@@H](CCCCN)C(=O)N[C@@H](CCCNC(=N)N)C(=O)N[C@@H](C)C(=O)N[C@@H](CCC(N)=O)C(=O)N[C@@H](CCC(=O)O)C(=O)N[C@@H](Cc1ccccc1)C(=O)N[C@H](C(=O)NC(C)(C)C(=O)N[C@@H](Cc1c[nH]c2ccccc12)C(=O)N[C@@H](CC(C)C)C(=O)N[C@@H](CCC(=O)O)C(=O)N[C@@H](CC(=O)O)C(=O)N[C@@H](CCC(=O)O)C(=O)N1CCC[C@H]1C(=O)N[C@@H](CO)C(=O)N[C@@H](CCCCN)C(=O)NCC(=O)N[C@@H](C)C(=O)N1CCC[C@H]1C(=O)N1CCC[C@H]1C(=O)N1CCC[C@H]1C(=O)N[C@@H](CO)C(=O)O)C(C)C` [Compound A30] (H-YSHGTFTSDYSKYLD[Aib]KRAQEFV[Aib]WLEDEPSKGAPPPS-OH; N-terminus assumed), the results for the pEC50 on human GCGR and on human GLP-1R were 10.90 and < 9.00, respectively.
